Key:
Type in all cases: cell-based
mPiezo2 = target: T1, mPiezo2 (Mus musculus, UniProt Q8CD54); assay: whole-cell patch clamp of mechanically activated currents, transfected HEK293T; details: 10 μM Yoda1, up to 5 min, -80 mV; selectivity control
T1 construct: gene Piezo2; cDNA transiently transfected in HEK293T cells

hPiezo1 = target: T2, hPiezo1 (Homo sapiens, UniProt Q92508); assay: FLIPR calcium influx (Fluo3), transfected HEK293T, 384-well; details: agonist; pH 7.4, HBSS with 1.26 mM CaCl2; unreliable (compound insolubility above ~20 μM)
T2 construct: gene PIEZO1; cDNA transiently transfected in HEK293T cells
T2 sequence (Q92508 whole entry): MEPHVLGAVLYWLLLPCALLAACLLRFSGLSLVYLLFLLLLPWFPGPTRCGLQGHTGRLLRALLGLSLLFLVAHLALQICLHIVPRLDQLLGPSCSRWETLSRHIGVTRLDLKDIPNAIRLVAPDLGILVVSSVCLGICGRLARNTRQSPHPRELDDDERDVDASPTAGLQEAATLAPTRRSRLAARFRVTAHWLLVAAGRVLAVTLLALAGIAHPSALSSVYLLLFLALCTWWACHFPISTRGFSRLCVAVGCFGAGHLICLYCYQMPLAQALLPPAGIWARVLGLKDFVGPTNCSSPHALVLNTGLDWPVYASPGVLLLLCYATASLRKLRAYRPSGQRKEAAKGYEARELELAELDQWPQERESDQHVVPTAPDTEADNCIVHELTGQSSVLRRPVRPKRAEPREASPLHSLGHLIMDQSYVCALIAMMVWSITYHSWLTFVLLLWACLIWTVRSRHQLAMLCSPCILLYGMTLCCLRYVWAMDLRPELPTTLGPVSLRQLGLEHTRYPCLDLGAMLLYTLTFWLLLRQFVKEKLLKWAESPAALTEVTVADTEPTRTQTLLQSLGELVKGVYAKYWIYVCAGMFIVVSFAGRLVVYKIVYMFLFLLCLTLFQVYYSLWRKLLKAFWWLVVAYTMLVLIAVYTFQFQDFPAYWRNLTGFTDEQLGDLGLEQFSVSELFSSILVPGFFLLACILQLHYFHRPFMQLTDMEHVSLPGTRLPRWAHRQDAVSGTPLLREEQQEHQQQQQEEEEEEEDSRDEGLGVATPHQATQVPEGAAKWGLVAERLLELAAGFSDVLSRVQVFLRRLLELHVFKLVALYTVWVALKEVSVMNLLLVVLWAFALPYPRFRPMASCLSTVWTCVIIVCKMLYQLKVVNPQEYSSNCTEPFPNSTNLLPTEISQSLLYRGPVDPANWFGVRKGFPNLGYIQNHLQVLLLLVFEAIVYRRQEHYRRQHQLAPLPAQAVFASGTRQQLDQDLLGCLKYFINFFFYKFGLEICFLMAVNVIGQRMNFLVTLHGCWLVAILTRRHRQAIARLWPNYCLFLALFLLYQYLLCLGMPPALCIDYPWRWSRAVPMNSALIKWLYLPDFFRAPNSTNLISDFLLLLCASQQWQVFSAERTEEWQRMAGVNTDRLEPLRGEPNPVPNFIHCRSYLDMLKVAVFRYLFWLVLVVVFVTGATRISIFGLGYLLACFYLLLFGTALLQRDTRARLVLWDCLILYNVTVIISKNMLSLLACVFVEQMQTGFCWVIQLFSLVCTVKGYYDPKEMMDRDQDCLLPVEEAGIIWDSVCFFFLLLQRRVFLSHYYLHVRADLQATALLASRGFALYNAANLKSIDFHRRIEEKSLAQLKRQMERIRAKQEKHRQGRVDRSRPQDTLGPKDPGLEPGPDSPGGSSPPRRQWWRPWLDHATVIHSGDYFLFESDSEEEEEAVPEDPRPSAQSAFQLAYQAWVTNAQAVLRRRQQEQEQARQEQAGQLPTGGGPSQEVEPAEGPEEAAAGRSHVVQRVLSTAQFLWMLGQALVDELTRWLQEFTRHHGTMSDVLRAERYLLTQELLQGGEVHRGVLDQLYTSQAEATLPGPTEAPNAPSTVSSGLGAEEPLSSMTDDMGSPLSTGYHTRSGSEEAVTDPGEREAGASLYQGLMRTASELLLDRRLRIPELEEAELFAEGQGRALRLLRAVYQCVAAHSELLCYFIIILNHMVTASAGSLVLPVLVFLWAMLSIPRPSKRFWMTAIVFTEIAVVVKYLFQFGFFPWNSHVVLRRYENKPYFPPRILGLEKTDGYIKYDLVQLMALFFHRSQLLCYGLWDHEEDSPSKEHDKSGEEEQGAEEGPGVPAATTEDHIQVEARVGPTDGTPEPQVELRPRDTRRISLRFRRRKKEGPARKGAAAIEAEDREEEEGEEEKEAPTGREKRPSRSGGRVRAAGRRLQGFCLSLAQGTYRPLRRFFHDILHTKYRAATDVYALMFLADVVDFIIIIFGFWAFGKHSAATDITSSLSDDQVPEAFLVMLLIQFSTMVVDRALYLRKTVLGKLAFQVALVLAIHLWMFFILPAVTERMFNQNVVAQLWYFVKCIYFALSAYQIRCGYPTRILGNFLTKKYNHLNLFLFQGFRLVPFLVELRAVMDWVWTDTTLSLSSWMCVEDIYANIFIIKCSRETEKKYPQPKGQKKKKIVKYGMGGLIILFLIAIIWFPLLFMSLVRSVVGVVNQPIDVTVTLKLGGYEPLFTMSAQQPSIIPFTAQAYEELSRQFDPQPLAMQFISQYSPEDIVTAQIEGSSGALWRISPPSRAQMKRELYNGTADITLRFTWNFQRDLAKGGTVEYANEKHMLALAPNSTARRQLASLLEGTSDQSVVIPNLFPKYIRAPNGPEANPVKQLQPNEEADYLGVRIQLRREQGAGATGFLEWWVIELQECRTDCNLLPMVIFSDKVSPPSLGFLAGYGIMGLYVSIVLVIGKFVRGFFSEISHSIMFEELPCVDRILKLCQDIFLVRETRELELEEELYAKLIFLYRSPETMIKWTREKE

mPiezo1 = target: T3, mPiezo1 (Mus musculus, UniProt E2JF22); assay: as above; details: agonist; pH 7.4, HBSS with 1.26 mM CaCl2; unreliable (compound insolubility above ~20 μM)
T3 construct: gene Piezo1; full-length cDNA transiently transfected in HEK293T (mPiezo1-IRES GFP for imaging and patch clamp); for bilayers purified protein as in Coste et al. 2012
T3 sequence (E2JF22 whole entry): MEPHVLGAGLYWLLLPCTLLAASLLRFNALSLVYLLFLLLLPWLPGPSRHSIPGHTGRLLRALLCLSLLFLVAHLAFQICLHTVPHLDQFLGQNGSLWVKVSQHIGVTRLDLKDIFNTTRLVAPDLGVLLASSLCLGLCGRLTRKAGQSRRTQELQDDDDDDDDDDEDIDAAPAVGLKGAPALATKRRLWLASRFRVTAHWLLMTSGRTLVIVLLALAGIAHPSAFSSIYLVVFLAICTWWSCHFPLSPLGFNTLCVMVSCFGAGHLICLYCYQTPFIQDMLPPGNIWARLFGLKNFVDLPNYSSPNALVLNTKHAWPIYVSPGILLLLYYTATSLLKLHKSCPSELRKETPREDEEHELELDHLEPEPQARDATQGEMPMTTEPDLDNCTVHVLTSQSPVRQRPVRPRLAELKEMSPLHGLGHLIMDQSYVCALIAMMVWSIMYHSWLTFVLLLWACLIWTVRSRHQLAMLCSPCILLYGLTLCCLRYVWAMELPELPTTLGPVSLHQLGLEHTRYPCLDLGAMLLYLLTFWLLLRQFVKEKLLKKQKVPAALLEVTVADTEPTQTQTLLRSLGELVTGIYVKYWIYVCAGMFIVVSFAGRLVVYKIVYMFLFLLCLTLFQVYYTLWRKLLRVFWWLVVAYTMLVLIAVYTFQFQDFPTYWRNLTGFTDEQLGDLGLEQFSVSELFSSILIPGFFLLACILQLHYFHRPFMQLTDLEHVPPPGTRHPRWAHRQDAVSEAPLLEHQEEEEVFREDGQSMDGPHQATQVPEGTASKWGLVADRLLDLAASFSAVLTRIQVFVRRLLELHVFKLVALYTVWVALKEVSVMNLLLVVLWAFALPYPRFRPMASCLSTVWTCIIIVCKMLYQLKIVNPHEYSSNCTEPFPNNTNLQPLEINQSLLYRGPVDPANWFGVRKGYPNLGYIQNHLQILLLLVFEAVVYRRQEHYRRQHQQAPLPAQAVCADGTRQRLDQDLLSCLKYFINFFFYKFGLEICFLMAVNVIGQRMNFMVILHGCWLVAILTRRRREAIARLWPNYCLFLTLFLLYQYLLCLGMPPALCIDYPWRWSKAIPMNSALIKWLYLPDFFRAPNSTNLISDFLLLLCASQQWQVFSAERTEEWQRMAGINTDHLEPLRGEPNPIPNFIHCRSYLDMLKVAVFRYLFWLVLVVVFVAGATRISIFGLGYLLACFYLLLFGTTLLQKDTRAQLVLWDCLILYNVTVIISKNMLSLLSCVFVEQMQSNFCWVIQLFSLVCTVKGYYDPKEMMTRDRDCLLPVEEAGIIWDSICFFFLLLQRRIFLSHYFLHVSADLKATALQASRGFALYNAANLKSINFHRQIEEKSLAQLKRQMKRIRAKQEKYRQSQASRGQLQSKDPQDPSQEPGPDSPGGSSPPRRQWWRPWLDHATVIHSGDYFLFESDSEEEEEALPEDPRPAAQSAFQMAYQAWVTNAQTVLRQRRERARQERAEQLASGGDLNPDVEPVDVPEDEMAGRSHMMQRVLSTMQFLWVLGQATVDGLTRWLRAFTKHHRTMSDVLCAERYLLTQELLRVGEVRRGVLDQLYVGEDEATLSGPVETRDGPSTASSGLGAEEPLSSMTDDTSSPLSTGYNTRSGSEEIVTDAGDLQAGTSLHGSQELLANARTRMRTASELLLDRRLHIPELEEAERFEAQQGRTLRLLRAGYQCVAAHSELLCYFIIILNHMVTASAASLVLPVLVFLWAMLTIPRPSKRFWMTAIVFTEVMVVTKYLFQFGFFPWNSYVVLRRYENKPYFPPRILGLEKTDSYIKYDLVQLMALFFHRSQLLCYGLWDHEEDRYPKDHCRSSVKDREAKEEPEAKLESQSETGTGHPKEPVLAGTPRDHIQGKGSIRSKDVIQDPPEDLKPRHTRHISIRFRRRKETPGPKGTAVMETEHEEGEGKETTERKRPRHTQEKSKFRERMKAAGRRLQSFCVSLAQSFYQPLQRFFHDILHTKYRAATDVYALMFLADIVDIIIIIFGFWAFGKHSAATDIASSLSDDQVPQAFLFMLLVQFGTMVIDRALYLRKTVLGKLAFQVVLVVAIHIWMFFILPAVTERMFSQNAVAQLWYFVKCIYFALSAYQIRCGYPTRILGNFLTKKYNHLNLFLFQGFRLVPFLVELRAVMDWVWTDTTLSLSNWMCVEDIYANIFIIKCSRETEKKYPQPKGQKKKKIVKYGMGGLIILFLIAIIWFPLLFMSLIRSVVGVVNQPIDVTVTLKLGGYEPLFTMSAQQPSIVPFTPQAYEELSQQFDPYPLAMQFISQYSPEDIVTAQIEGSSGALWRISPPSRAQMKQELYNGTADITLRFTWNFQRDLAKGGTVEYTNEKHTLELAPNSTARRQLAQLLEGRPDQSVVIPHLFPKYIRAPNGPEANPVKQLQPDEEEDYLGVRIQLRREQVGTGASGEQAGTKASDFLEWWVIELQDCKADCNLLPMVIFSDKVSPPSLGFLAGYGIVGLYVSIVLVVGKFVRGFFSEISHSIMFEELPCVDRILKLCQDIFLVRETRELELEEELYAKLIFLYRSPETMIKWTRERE

Clc1cccc(Cl)c1CSc1nnc(-c2cnccn2)s1 [Yoda1]
whole-cell patch clamp of mechanically activated currents, transfected HEK293T (mPiezo2): No effect was observed upon Yoda1 exposure | apparent EC50 (hPiezo1): 26.6 (95% CI 20.6 to 34.4) μM | apparent EC50 (mPiezo1): 17.1 (95% CI 13.4 to 21.9) μM

— publication PMC4456433, “Chemical activation of the mechanotransduction channel Piezo1” (eLife, 2015)
